PubChem BioAssay AID1963980 (Molecular Pharmacology Branch, DTP, NCI, 2024)

These compounds were tested on 475296-252-R-J1-PDC spheroid viability (assay: Anticancer human tumor 475296-252-R-J1-PDC patient-derived rectal carcinoma cell line growth inhibition [PI3K]). Conditions: curve of first compound; second compound 10 µM; spheroids with HUVEC and MSC.
In short: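 Viability of mixed-cell spheroids was determined after exposure to pairwise combinations, one partner being inavolisib, alpelisib, duvelisib or copanlisib. Highest tested concentration matched clinical Cmax where known and 10 microM where not, descending in half-log steps.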
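Also: spheroids exposed to agents for seven days before readout.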

Structure (SMILES)	IC50 [µM]
Cn1ncc(Cl)c1-c1cc(C(=O)NC(CN)Cc2cccc(F)c2)sc1Cl (stereo unspecified) + CC(Nc1ncnc2nc[nH]c12)c1cc2cccc(Cl)c2c(=O)n1-c1ccccc1	> 10
Cn1nccc1Nc1nccc(-c2ccn(C(CO)c3ccc(Cl)c(F)c3)c(=O)c2)n1 (stereo unspecified) + CC(Nc1ncnc2nc[nH]c12)c1cc2cccc(Cl)c2c(=O)n1-c1ccccc1	> 10

More lines, now with the values ahead:

IC50 [µM]	Structure (SMILES)
> 10	C=CC(=O)N1CCN(c2nc(=O)n(-c3c(C)ccnc3C(C)C)c3nc(-c4c(O)cccc4F)c(F)cc23)C(C)C1 (stereo unspecified) + CC(Nc1ncnc2nc[nH]c12)c1cc2cccc(Cl)c2c(=O)n1-c1ccccc1
> 10	CC(Cn1ccc(-c2ccc(C#N)c(Cl)c2)n1)NC(=O)c1cc(C(C)O)[nH]n1 (stereo unspecified) + CC(Nc1ncnc2nc[nH]c12)c1cc2cccc(Cl)c2c(=O)n1-c1ccccc1

Same assay, conditions: second compound 0.0316 µM; first compound 0.0316 µM; stronger effect = lower value; spheroids with HUVEC and MSC

Structure (SMILES)	viability, T/C [%]
C#Cc1c(F)ccc2cc(O)cc(-c3ncc4c(N5CC6CCC(C5)N6)nc(OCC56CCCN5CC(F)C6)nc4c3F)c12 (stereo unspecified) + CC(Nc1ncnc2nc[nH]c12)c1cc2cccc(Cl)c2c(=O)n1-c1ccccc1	94.9
C=CC(=O)N1CCN(c2nc(=O)n(-c3c(C)ccnc3C(C)C)c3nc(-c4c(O)cccc4F)c(F)cc23)C(C)C1 (stereo unspecified) + CC(Nc1ncnc2nc[nH]c12)c1cc2cccc(Cl)c2c(=O)n1-c1ccccc1	110
CC(Cn1ccc(-c2ccc(C#N)c(Cl)c2)n1)NC(=O)c1cc(C(C)O)[nH]n1 (stereo unspecified) + CC(Nc1ncnc2nc[nH]c12)c1cc2cccc(Cl)c2c(=O)n1-c1ccccc1	97.8
Cn1ncc(Cl)c1-c1cc(C(=O)NC(CN)Cc2cccc(F)c2)sc1Cl (stereo unspecified) + CC(Nc1ncnc2nc[nH]c12)c1cc2cccc(Cl)c2c(=O)n1-c1ccccc1	101
Cn1nccc1Nc1nccc(-c2ccn(C(CO)c3ccc(Cl)c(F)c3)c(=O)c2)n1 (stereo unspecified) + CC(Nc1ncnc2nc[nH]c12)c1cc2cccc(Cl)c2c(=O)n1-c1ccccc1	94.3

Same assay, conditions: second compound 0.0316 µM; first compound 0.1 µM; stronger effect = lower value; spheroids with HUVEC and MSC

Structure (SMILES)	viability, T/C [%]
C#Cc1c(F)ccc2cc(O)cc(-c3ncc4c(N5CC6CCC(C5)N6)nc(OCC56CCCN5CC(F)C6)nc4c3F)c12 (stereo unspecified) + CC(Nc1ncnc2nc[nH]c12)c1cc2cccc(Cl)c2c(=O)n1-c1ccccc1	73.8
C=CC(=O)N1CCN(c2nc(=O)n(-c3c(C)ccnc3C(C)C)c3nc(-c4c(O)cccc4F)c(F)cc23)C(C)C1 (stereo unspecified) + CC(Nc1ncnc2nc[nH]c12)c1cc2cccc(Cl)c2c(=O)n1-c1ccccc1	98.7
CC(Cn1ccc(-c2ccc(C#N)c(Cl)c2)n1)NC(=O)c1cc(C(C)O)[nH]n1 (stereo unspecified) + CC(Nc1ncnc2nc[nH]c12)c1cc2cccc(Cl)c2c(=O)n1-c1ccccc1	94.9
Cn1ncc(Cl)c1-c1cc(C(=O)NC(CN)Cc2cccc(F)c2)sc1Cl (stereo unspecified) + CC(Nc1ncnc2nc[nH]c12)c1cc2cccc(Cl)c2c(=O)n1-c1ccccc1	83.3
Cn1nccc1Nc1nccc(-c2ccn(C(CO)c3ccc(Cl)c(F)c3)c(=O)c2)n1 (stereo unspecified) + CC(Nc1ncnc2nc[nH]c12)c1cc2cccc(Cl)c2c(=O)n1-c1ccccc1	102

Same assay, conditions: second compound 0.0316 µM; first compound 0.316 µM; stronger effect = lower value; spheroids with HUVEC and MSC

Structure (SMILES)	viability, T/C [%]
C#Cc1c(F)ccc2cc(O)cc(-c3ncc4c(N5CC6CCC(C5)N6)nc(OCC56CCCN5CC(F)C6)nc4c3F)c12 (stereo unspecified) + CC(Nc1ncnc2nc[nH]c12)c1cc2cccc(Cl)c2c(=O)n1-c1ccccc1	77.2
C=CC(=O)N1CCN(c2nc(=O)n(-c3c(C)ccnc3C(C)C)c3nc(-c4c(O)cccc4F)c(F)cc23)C(C)C1 (stereo unspecified) + CC(Nc1ncnc2nc[nH]c12)c1cc2cccc(Cl)c2c(=O)n1-c1ccccc1	103
CC(Cn1ccc(-c2ccc(C#N)c(Cl)c2)n1)NC(=O)c1cc(C(C)O)[nH]n1 (stereo unspecified) + CC(Nc1ncnc2nc[nH]c12)c1cc2cccc(Cl)c2c(=O)n1-c1ccccc1	96.6
Cn1ncc(Cl)c1-c1cc(C(=O)NC(CN)Cc2cccc(F)c2)sc1Cl (stereo unspecified) + CC(Nc1ncnc2nc[nH]c12)c1cc2cccc(Cl)c2c(=O)n1-c1ccccc1	60.1
Cn1nccc1Nc1nccc(-c2ccn(C(CO)c3ccc(Cl)c(F)c3)c(=O)c2)n1 (stereo unspecified) + CC(Nc1ncnc2nc[nH]c12)c1cc2cccc(Cl)c2c(=O)n1-c1ccccc1	89.8

Same assay, conditions: second compound 0.0316 µM; first compound 1 µM; stronger effect = lower value; spheroids with HUVEC and MSC

Structure (SMILES)	viability, T/C [%]
C#Cc1c(F)ccc2cc(O)cc(-c3ncc4c(N5CC6CCC(C5)N6)nc(OCC56CCCN5CC(F)C6)nc4c3F)c12 (stereo unspecified) + CC(Nc1ncnc2nc[nH]c12)c1cc2cccc(Cl)c2c(=O)n1-c1ccccc1	71.8
C=CC(=O)N1CCN(c2nc(=O)n(-c3c(C)ccnc3C(C)C)c3nc(-c4c(O)cccc4F)c(F)cc23)C(C)C1 (stereo unspecified) + CC(Nc1ncnc2nc[nH]c12)c1cc2cccc(Cl)c2c(=O)n1-c1ccccc1	89
CC(Cn1ccc(-c2ccc(C#N)c(Cl)c2)n1)NC(=O)c1cc(C(C)O)[nH]n1 (stereo unspecified) + CC(Nc1ncnc2nc[nH]c12)c1cc2cccc(Cl)c2c(=O)n1-c1ccccc1	92.1
Cn1ncc(Cl)c1-c1cc(C(=O)NC(CN)Cc2cccc(F)c2)sc1Cl (stereo unspecified) + CC(Nc1ncnc2nc[nH]c12)c1cc2cccc(Cl)c2c(=O)n1-c1ccccc1	71.5
Cn1nccc1Nc1nccc(-c2ccn(C(CO)c3ccc(Cl)c(F)c3)c(=O)c2)n1 (stereo unspecified) + CC(Nc1ncnc2nc[nH]c12)c1cc2cccc(Cl)c2c(=O)n1-c1ccccc1	92.2

Same assay, conditions: second compound 0.0316 µM; first compound 3.16 µM; stronger effect = lower value; spheroids with HUVEC and MSC

Structure (SMILES)	viability, T/C [%]
C#Cc1c(F)ccc2cc(O)cc(-c3ncc4c(N5CC6CCC(C5)N6)nc(OCC56CCCN5CC(F)C6)nc4c3F)c12 (stereo unspecified) + CC(Nc1ncnc2nc[nH]c12)c1cc2cccc(Cl)c2c(=O)n1-c1ccccc1	68.8
C=CC(=O)N1CCN(c2nc(=O)n(-c3c(C)ccnc3C(C)C)c3nc(-c4c(O)cccc4F)c(F)cc23)C(C)C1 (stereo unspecified) + CC(Nc1ncnc2nc[nH]c12)c1cc2cccc(Cl)c2c(=O)n1-c1ccccc1	102
